# In patent US7229999B2, “Pyridine-3-carboxamide derivatives as CB1 inverse agonists” (Hoffmann-La Roche Inc., priority 2005, dated 2007):
# Where two headings read alike, the source gives them in different places.
# Key:
# [1] = biological target: T1, human cannabis CB1 receptor (Homo sapiens, UniProt P21554); test: Affinity for cannabinoid CB1 receptors, [3H]-CP-55,940 radioligand binding on HEK cell membranes
# T1 construct: expressed in transfected cells; host or cells: human embryonic kidney (HEK) cells, transient, Semliki Forest Virus system
# Experimental: The affinity of the compounds of the invention for cannabinoid CB1 receptors was determined using membrane preparations of human embryonic kidney (HEK) cells in which the human cannabis CB1 receptor is transiently transfected using the Semliki Forest Virus system in conjunction with [3H]-CP-55,940 as radioligand. After incubation of a freshly prepared cell membrane preparation with the [3H]-ligand, with or without addition of compounds of the invention, separation of bound and free ligand was performed by filtration over glassfiber filters. Radioactivity on the filter was measured by liquid scintillation counting.
# [2] = doses of 10 and 20 mg daily; cited from earlier work
# T1 sequence (P21554 whole entry): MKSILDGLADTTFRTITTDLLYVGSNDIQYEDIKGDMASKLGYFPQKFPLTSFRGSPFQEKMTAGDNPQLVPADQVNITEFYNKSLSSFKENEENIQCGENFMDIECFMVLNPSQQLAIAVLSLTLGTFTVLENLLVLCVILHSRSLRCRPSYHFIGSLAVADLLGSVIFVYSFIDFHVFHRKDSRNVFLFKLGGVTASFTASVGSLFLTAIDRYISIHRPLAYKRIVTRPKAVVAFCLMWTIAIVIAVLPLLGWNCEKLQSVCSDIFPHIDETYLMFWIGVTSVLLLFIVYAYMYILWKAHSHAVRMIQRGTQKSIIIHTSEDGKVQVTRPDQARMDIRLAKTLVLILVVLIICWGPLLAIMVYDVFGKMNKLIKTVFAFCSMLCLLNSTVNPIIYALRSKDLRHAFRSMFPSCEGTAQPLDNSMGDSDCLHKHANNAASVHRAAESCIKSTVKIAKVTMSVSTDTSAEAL
smiles,measurement,setting,value
"CCCCOc1ncc(C(=O)N[C@@H]2CCCC[C@H]2O)cc1-c1cc(C(F)(F)F)ccc1F [Example 2, 6-Butoxy-5-(2-fluoro-5-trifluoromethyl-phenyl)-N-((1R,2R)-2-hydroxy-cyclohexyl)-nicotinamide]",melting point,,172 to 178 °C
same,IC50,"[1]; affinity for the CB1 receptor, read-out: IC50",186 nM
"CCCCOc1ncc(C(=O)N[C@@H]2CCCC[C@H]2O)cc1-c1ccc(Cl)cc1 [Example 3, 6-Butoxy-5-(4-chloro-phenyl)-N-((1R,2R)-2-hydroxy-cyclohexyl)-nicotinamide]",IC50,[1],39 nM
"O=C(N[C@@H]1CCCC[C@H]1O)c1cnc(OCC2CC2)c(-c2cc(C(F)(F)F)ccc2F)c1 [Example 7, 6-Cyclopropylmethoxy-5-(2-fluoro-5-trifluoromethyl-phenyl)-N-((1R,2R)-2-hydroxy-cyclohexyl)-nicotinamide]",IC50,[1],102 nM
Cc1c(C(=O)NN2CCCCC2)nn(-c2ccc(Cl)cc2Cl)c1-c1ccc(Cl)cc1 [SR 141716],body weight compared to placebo,[2],significantly reduced body weight
